{
  "source": "patent US8431154B2",
  "about": "“Oral dosage form containing a PDE 4 inhibitor as an active ingredient and polyvinylpyrrolidone as excipient” (Takeda GmbH, priority 2002, dated 2013)",
  "origin": "cited, not measured here",
  "settings": "as referred to for U.S. Pat. No. 5,286,494",
  "data": [
    {"smiles": "COc1ccc(C2CNC(=O)C2)cc1OC1CCCC1", "note": "(stereo not shown) [Rolipram]", "values": [
      {"measurement": "solubility", "value": "solubility is slight"}
    ]}
  ]
}
